Experimental findings from patent US11986532B2 (Arvinas Operations, Inc., priority 2021, dated 2024) are described below.

The term Dmax denotes the greatest extent of degradation seen. Broadly, the DC50 is the concentration at which degradation of the target reaches its halfway point.

The assay has as its target T1, BCL6 (Homo sapiens, UniProt P41182).
T1 construct: endogenous in cells; host or cells: T47D breast cancer epithelial cells
Briefly: Immunofluorescence protocol for high content imaging of BCL6 (degradation) in T47D cells, 3 days compound treatment. The class given is cell-based. To be noted: for Dmax: T47D, read-out: Mean Dmax (%)** category; for DC50: read-out: Mean DC50 (nM)* category. An outline of the steps:
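Read-out: high-content imaging of anti-BCL6 immunofluorescence (Alexa-488 secondary) with CellMask and Hoechst counterstains, 10×, 4 fields/well. Cells had 3 days of compound exposure at 37° C, 5% CO2, 11-point 3-fold series from a final top of 0.1 or 1 μM.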

For `CNC(=O)COc1cc2cc(Nc3nc(N4CCC(O[C@H]5C[C@H](N6CC[C@H](c7ccc8c(c7F)CN(C7CCC(=O)NC7=O)C8=O)[C@@H](O)C6)C5)CC4)ncc3Cl)ccc2n(C(C)C)c1=O` (stereo partly drawn) [Compound 284, 2-({6-[(5-chloro-2-{4-[(1r,3r)-3-[(3R,4R)-4-[2-(2,6-dioxopiperidin-3-yl)-4-fluoro-1-oxo-2,3-dihydro-1H-isoindol-5-yl]-3-hydroxypiperidin-1-yl]cyclobutoxy]piperidin-1-yl}pyrimidin-4-yl)amino]-2-oxo-1-(propan-2-yl)-1,2-dihydroquinolin-3-yl}oxy)-N-methylacetamide], the Dmax was in the range of 50 to 70% and the DC50 was below 10 nM.
As for `CNC(=O)COc1cc2cc(Nc3nc(N4CCC(F)(CN5CC(N6CCC(c7ccc8c(c7F)CN(C7CCC(=O)NC7=O)C8=O)CC6)C5)CC4)ncc3Cl)ccc2n(C(C)C)c1=O` (stereo not shown) [Compound 285, 2-({6-[(5-chloro-2-{4-[(3-{4-[2-(2,6-dioxopiperidin-3-yl)-4-fluoro-1-oxo-2,3-dihydro-1H-isoindol-5-yl]piperidin-1-yl}azetidin-1-yl)methyl]-4-fluoropiperidin-1-yl}pyrimidin-4-yl)amino]-2-oxo-1-(propan-2-yl)-1,2-dihydroquinolin-3-yl}oxy)-N-methylacetamide], the Dmax was at least 70% and the DC50 was below 10 nM.
As for `CNC(=O)COc1cc2cc(Nc3nc(N4CCC(O[C@H]5C[C@H](N6CCN(CC7CCN(c8ccc9c(c8F)CN(C8CCC(=O)NC8=O)C9=O)CC7)CC6)C5)CC4)ncc3Cl)ccc2n(C(C)C)c1=O` (stereo partly shown) [Compound 286, 2-({6-[(5-chloro-2-{4-[(1r,3r)-3-[4-({1-[2-(2,6-dioxopiperidin-3-yl)-4-fluoro-1-oxo-2,3-dihydro-1H-isoindol-5-yl]piperidin-4-yl}methyl)piperazin-1-yl]cyclobutoxy]piperidin-1-yl}pyrimidin-4-yl)amino]-2-oxo-1-(propan-2-yl)-1,2-dihydroquinolin-3-yl}oxy)-N-methylacetamide], the Dmax was in the range of 50 to 70% and the DC50 was below 10 nM.
With `CC[C@@H]1CN([C@H]2C[C@H](OC3CCN(c4ncc(Cl)c(Nc5ccc6c(c5)cc(OCC(=O)NC)c(=O)n6C(C)C)n4)CC3)C2)CCN1c1ccc2c(c1C)C(=O)N(C1CCC(=O)NC1=O)C2=O` (stereo partly drawn) [Compound 287, 2-({6-[(5-chloro-2-{4-[(1r,3r)-3-[(3R)-4-[2-(2,6-dioxopiperidin-3-yl)-4-methyl-1,3-dioxo-2,3-dihydro-1H-isoindol-5-yl]-3-ethylpiperazin-1-yl]cyclobutoxy]piperidin-1-yl}pyrimidin-4-yl)amino]-2-oxo-1-(propan-2-yl)-1,2-dihydroquinolin-3-yl}oxy)-N-methylacetamide], the Dmax was at least 70% and the DC50 was below 10 nM.
`CNC(=O)COc1cc2cc(Nc3nc(N4CCC(O[C@H]5C[C@H](N6CCC(c7ccc8c(c7F)[C@@H](C)N([C@H]7CCC(=O)NC7=O)C8=O)CC6)C5)CC4)ncc3Cl)ccc2n(C(C)C)c1=O` [Compound 288, 2-({6-[(5-chloro-2-{4-[(1r,3r)-3-{4-[(3R)-2-[(3S)-2,6-dioxopiperidin-3-yl]-4-fluoro-3-methyl-1-oxo-2,3-dihydro-1H-isoindol-5-yl]piperidin-1-yl}cyclobutoxy]piperidin-1-yl}pyrimidin-4-yl)amino]-2-oxo-1-(propan-2-yl)-1,2-dihydroquinolin-3-yl}oxy)-N-methylacetamide]: the Dmax was below 50% and the DC50 lay in the range of 10 to 50 nM.
`CNC(=O)COc1cc2cc(Nc3nc(N4CCC(O[C@H]5C[C@H](N6CCC(c7ccc8c(c7F)[C@@H](C)N(C7CCC(=O)NC7=O)C8=O)CC6)C5)CC4)ncc3Cl)ccc2n(C(C)C)c1=O` (stereo partly drawn) [Compound 289, 2-({6-[(5-chloro-2-{4-[(1r,3r)-3-{4-[(3R)-2-(2,6-dioxopiperidin-3-yl)-4-fluoro-3-methyl-1-oxo-2,3-dihydro-1H-isoindol-5-yl]piperidin-1-yl}cyclobutoxy]piperidin-1-yl}pyrimidin-4-yl)amino]-2-oxo-1-(propan-2-yl)-1,2-dihydroquinolin-3-yl}oxy)-N-methylacetamide]: the Dmax is at least 70% and the DC50 was below 10 nM.
As to `CNC(=O)COc1cc2cc(Nc3nc(N4CCC(O[C@H]5C[C@H](N6CCC(c7ccc8c(c7F)[C@H](C)N([C@H]7CCC(=O)NC7=O)C8=O)CC6)C5)CC4)ncc3Cl)ccc2n(C(C)C)c1=O` [Compound 290, 2-({6-[(5-chloro-2-{4-[(1r,3r)-3-{4-[(3S)-2-[(3S)-2,6-dioxopiperidin-3-yl]-4-fluoro-3-methyl-1-oxo-2,3-dihydro-1H-isoindol-5-yl]piperidin-1-yl}cyclobutoxy]piperidin-1-yl}pyrimidin-4-yl)amino]-2-oxo-1-(propan-2-yl)-1,2-dihydroquinolin-3-yl}oxy)-N-methylacetamide], the Dmax was at least 70% and the DC50 was below 10 nM.
On to `CNC(=O)COc1cc2cc(Nc3nc(N4CCC(O[C@H]5C[C@H](N6CCC(c7ccc8c(c7F)[C@H](C)N(C7CCC(=O)NC7=O)C8=O)CC6)C5)CC4)ncc3Cl)ccc2n(C(C)C)c1=O` (stereo partly drawn) [Compound 291, 2-({6-[(5-chloro-2-{4-[(1r,3r)-3-{4-[(3S)-2-(2,6-dioxopiperidin-3-yl)-4-fluoro-3-methyl-1-oxo-2,3-dihydro-1H-isoindol-5-yl]piperidin-1-yl}cyclobutoxy]piperidin-1-yl}pyrimidin-4-yl)amino]-2-oxo-1-(propan-2-yl)-1,2-dihydroquinolin-3-yl}oxy)-N-methylacetamide], for which the greatest degradation seen (Dmax) is at least 70% and the DC50 was below 10 nM.
`CNC(=O)COc1cc2cc(Nc3nc(N4CCC(O[C@H]5C[C@H](N6CC[C@@H](c7ccc8c(c7F)CN([C@H]7CCC(=O)NC7=O)C8=O)C[C@@H]6C)C5)CC4)ncc3Cl)ccc2n(C(C)C)c1=O` [Compound 292, 2-({6-[(5-chloro-2-{4-[(1r,3r)-3-[(2S,4R)-4-{2-[(3S)-2,6-dioxopiperidin-3-yl]-4-fluoro-1-oxo-2,3-dihydro-1H-isoindol-5-yl}-2-methylpiperidin-1-yl]cyclobutoxy]piperidin-1-yl}pyrimidin-4-yl)amino]-2-oxo-1-(propan-2-yl)-1,2-dihydroquinolin-3-yl}oxy)-N-methylacetamide]: the Dmax was at least 70% and the DC50 is below 10 nM.
Consider `CNC(=O)COc1cc2cc(Nc3nc(N4CCC(O[C@H]5C[C@H](N6CC[C@H](c7ccc8c(c7F)CN([C@H]7CCC(=O)NC7=O)C8=O)C[C@@H]6C)C5)CC4)ncc3Cl)ccc2n(C(C)C)c1=O` [Compound 293, 2-({6-[(5-chloro-2-{4-[(1r,3r)-3-[(2S,4S)-4-{2-[(3S)-2,6-dioxopiperidin-3-yl]-4-fluoro-1-oxo-2,3-dihydro-1H-isoindol-5-yl}-2-methylpiperidin-1-yl]cyclobutoxy]piperidin-1-yl}pyrimidin-4-yl)amino]-2-oxo-1-(propan-2-yl)-1,2-dihydroquinolin-3-yl}oxy)-N-methylacetamide], for which the Dmax was 50 to 70% and the DC50 was below 10 nM.
For `CNC(=O)COc1cc2cc(Nc3nc(N4CCC(O[C@H]5C[C@H](N6CC[C@@H](c7ccc8c(c7F)CN([C@H]7CCC(=O)NC7=O)C8=O)C[C@H]6C)C5)CC4)ncc3Cl)ccc2n(C(C)C)c1=O` [Compound 294, 2-({6-[(5-chloro-2-{4-[(1r,3r)-3-[(2R,4R)-4-{2-[(3S)-2,6-dioxopiperidin-3-yl]-4-fluoro-1-oxo-2,3-dihydro-1H-isoindol-5-yl}-2-methylpiperidin-1-yl]cyclobutoxy]piperidin-1-yl}pyrimidin-4-yl)amino]-2-oxo-1-(propan-2-yl)-1,2-dihydroquinolin-3-yl}oxy)-N-methylacetamide], the Dmax was at least 70% and the DC50 was below 10 nM.
Consider `CNC(=O)COc1cc2cc(Nc3nc(N4CCC(O[C@H]5C[C@H](N6CC[C@H](c7ccc8c(c7F)CN([C@H]7CCC(=O)NC7=O)C8=O)C[C@H]6C)C5)CC4)ncc3Cl)ccc2n(C(C)C)c1=O` [Compound 295, 2-({6-[(5-chloro-2-{4-[(1r,3r)-3-[(2R,4S)-4-{2-[(3S)-2,6-dioxopiperidin-3-yl]-4-fluoro-1-oxo-2,3-dihydro-1H-isoindol-5-yl}-2-methylpiperidin-1-yl]cyclobutoxy]piperidin-1-yl}pyrimidin-4-yl)amino]-2-oxo-1-(propan-2-yl)-1,2-dihydroquinolin-3-yl}oxy)-N-methylacetamide], for which the Dmax is at least 70% and the DC50 is below 10 nM.
With `CNC(=O)COc1cc2cc(Nc3nc(N4CCN(CC5CCN(c6c(F)ccc7c6CN(C6CCC(=O)NC6=O)C7=O)CC5)CC4)ncc3Cl)ccc2n(C(C)C)c1=O` (stereo not shown) [Compound 297, 2-{[6-({5-chloro-2-[4-({1-[2-(2,6-dioxopiperidin-3-yl)-5-fluoro-1-oxo-2,3-dihydro-1H-isoindol-4-yl]piperidin-4-yl}methyl)piperazin-1-yl]pyrimidin-4-yl}amino)-2-oxo-1-(propan-2-yl)-1,2-dihydroquinolin-3-yl]oxy}-N-methylacetamide], the Dmax was 50 to 70% and the DC50 is below 10 nM.
Take `CNC(=O)COc1cc2cc(Nc3nc(N4CCC(OC5CCC6(CC5)CN(c5c(F)ccc7c5CN(C5CCC(=O)NC5=O)C7=O)C6)CC4)ncc3Cl)ccc2n(C(C)C)c1=O` (stereo not shown) [Compound 298, 2-{[6-({5-chloro-2-[4-({2-[2-(2,6-dioxopiperidin-3-yl)-5-fluoro-1-oxo-2,3-dihydro-1H-isoindol-4-yl]-2-azaspiro[3.5]nonan-7-yl}oxy)piperidin-1-yl]pyrimidin-4-yl}amino)-2-oxo-1-(propan-2-yl)-1,2-dihydroquinolin-3-yl]oxy}-N-methylacetamide]: the Dmax was in the range of 50 to 70% and the DC50 was below 10 nM.
